Patent US20230295119A1, “SUBSTITUTED PYRIDINES FOR THE TREATMENT OF INFLAMMATORY DISEASES” (GOSSAMER BIO SERVICES, INC., priority 2020, published 2023)
pIC50: −log10 of the molar value.

How the values were obtained:
[1] = molecular target: human JAK2 (Homo sapiens (Human), UniProt O60674); assay: JAK2 TR-FRET kinase assay; format: biochemical; settings: JAK2 0.025 nM
[2] = molecular target: TYK2 JH2 domain (Homo sapiens (Human), UniProt P29597); assay: TYK2 JH2 NanoBRET assay; format: binding; settings: Table 20, read-out: TYK2 IC50
Sequence of TYK2 JH2 domain (P29597 589-875): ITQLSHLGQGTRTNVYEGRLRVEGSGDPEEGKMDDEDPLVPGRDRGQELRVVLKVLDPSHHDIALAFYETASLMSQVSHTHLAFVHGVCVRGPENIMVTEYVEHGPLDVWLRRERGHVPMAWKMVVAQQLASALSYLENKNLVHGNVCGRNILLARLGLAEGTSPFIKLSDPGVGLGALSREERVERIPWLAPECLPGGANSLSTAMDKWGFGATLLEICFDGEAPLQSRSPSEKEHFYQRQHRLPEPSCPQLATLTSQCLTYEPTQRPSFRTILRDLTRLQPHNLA
Description: HEK293T cells were transfected with NanoLuc-TYK2 JH2 Fusion Vector (Promega, customized) using Trans-IT reagent (Mirus, #MIR2700) and incubated for overnight in 37° C. incubator. […] Add 85 µL of cell suspension into white, polypropylene, 96-well plates (Corning, #3600). 90 µL of cells were used for no tracer control samples. 5 µL of diluted NanoBRET K10 tracer (Promega, #CS1810C122) were added to cells to a final concentration of 0.5 µM. Test compounds were diluted into DMSO, and then phenol-free opti-MEM to 10X of final concentration. 10 µL of diluted compounds were added into each well. The cells were incubated with test compound and tracer for 2 hours. 3XNanoBRET® Nano-Glo® Substrate and Extracellular NanoLuc® Inhibitor mixture were prepared and 50 µL of the mixture were added into the wells and mixed. […] NanoBRET signal was determined by using the ratio of acceptor signal and donor signal.

[3] = molecular target: human JAK3 (Homo sapiens (Human), UniProt P52333); assay: JAK3 TR-FRET kinase assay; format: biochemical; settings: JAK3 0.0125 nM
Sequence of human JAK3 (P52333 whole entry): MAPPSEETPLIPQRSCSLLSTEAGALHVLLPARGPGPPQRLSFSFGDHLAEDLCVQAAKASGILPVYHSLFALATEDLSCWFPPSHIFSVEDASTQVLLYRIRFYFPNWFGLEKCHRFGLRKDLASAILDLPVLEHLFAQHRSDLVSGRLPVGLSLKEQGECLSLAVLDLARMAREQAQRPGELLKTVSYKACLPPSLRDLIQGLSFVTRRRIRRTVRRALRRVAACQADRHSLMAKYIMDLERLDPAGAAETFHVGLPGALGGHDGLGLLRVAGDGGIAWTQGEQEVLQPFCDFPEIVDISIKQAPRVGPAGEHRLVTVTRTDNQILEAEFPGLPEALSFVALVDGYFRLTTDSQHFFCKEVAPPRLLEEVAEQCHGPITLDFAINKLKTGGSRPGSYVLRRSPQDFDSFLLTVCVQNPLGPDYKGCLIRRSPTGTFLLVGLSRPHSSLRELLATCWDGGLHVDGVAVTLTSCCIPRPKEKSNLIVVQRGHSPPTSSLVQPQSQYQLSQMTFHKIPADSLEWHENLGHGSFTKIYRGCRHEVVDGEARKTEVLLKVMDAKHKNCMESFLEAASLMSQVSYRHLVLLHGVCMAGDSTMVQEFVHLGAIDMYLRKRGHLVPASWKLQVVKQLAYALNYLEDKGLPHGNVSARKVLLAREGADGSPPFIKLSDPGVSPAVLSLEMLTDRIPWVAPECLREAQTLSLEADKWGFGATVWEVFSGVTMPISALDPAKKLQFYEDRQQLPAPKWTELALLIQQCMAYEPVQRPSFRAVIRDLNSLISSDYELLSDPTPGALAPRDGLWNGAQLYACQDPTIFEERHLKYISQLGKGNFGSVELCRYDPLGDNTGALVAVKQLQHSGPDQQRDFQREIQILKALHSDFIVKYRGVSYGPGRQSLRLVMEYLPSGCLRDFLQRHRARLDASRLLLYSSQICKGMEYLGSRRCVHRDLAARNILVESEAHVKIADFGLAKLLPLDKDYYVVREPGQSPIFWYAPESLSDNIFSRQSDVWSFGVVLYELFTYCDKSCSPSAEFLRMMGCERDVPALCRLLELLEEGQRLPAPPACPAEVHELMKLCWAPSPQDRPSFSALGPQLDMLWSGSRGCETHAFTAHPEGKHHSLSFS

[4] = molecular target: human JAK1 (Homo sapiens (Human), UniProt P23458); assay: JAK1 TR-FRET kinase assay; format: biochemical; settings: TR-FRET, JAK1 2.5 nM
Sequence of human JAK1 (P23458 whole entry): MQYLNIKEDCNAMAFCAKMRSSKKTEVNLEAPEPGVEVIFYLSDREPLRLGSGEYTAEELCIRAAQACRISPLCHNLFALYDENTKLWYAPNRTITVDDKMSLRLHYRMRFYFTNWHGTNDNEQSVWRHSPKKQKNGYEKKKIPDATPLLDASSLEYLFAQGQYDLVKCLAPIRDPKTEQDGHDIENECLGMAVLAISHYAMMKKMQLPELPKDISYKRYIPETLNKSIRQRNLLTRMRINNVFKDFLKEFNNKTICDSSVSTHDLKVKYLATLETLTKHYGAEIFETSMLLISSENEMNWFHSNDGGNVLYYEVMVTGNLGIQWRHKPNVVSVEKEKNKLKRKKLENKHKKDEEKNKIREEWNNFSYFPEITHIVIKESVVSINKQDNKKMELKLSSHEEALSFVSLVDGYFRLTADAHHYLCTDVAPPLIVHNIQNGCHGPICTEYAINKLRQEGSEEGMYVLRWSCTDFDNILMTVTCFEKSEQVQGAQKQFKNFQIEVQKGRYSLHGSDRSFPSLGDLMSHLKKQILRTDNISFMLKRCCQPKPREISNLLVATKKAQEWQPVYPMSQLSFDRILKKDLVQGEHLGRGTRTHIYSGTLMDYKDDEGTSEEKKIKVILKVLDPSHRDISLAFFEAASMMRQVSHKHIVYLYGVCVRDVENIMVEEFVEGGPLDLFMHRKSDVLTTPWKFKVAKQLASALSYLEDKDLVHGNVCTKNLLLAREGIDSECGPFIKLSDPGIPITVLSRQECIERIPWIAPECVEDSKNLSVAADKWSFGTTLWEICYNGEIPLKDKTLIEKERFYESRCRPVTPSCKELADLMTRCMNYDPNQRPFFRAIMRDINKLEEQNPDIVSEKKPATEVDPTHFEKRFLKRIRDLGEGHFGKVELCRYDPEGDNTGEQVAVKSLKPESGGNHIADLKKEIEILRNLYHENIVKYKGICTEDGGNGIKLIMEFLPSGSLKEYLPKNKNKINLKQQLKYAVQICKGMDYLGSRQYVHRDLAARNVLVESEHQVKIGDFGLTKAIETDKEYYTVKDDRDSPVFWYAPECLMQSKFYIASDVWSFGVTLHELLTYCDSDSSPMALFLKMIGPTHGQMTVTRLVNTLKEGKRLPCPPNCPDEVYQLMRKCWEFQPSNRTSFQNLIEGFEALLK

Sequence of human JAK2 (O60674 whole entry, the tested form may be a part): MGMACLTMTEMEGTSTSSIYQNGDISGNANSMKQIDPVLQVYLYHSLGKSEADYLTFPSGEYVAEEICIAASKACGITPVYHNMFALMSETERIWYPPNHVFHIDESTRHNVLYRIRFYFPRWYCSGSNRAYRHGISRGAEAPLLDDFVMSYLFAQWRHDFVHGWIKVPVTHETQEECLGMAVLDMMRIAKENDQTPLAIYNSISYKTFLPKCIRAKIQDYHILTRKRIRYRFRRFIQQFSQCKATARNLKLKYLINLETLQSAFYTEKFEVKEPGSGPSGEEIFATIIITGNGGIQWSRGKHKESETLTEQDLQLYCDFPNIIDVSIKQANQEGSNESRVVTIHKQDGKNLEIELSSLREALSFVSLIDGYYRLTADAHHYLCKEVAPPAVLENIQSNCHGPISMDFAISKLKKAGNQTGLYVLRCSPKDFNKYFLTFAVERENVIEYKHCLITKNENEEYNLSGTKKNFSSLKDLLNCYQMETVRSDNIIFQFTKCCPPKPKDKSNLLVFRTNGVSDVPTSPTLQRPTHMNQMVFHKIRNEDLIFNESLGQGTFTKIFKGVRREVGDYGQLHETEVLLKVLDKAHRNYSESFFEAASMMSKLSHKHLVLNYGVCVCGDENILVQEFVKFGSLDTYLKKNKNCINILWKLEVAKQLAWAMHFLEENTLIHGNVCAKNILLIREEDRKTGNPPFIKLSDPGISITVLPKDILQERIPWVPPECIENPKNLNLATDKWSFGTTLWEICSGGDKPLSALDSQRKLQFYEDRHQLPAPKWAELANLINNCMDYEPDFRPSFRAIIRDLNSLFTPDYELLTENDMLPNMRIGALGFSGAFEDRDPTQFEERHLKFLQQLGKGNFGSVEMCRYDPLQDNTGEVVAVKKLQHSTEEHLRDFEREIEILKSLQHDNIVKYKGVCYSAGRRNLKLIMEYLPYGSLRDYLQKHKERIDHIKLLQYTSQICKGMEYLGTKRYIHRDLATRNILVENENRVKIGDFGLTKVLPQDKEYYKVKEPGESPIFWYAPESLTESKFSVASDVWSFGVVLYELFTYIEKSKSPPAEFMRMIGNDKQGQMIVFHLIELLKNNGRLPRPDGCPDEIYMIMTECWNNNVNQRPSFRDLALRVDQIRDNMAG

CCC(=O)c1cnc(Nc2ccc(-n3cnccc3=O)cn2)cc1Nc1cccc(-c2ncn(C)n2)c1OC [Compound 15Y]
pIC50 [1]: 6.30 to 7.30
pIC50 [2]: > 8.30
pIC50 [3]: 6.30 to 7.30
pIC50 [4]: ≤ 6.30

CCC(=O)c1cnc(Nc2cnc(CS(C)(=O)=O)cn2)cc1Nc1cccc(-c2ncn(C)n2)c1OC [Compound 13U]
pIC50 [1]: ≤ 6.30
pIC50 [2]: 7.30 to 8.30
pIC50 [3]: ≤ 6.30
pIC50 [4]: ≤ 6.30

CCC(=O)c1cnc(Nc2ccn([C@H]3C[C@@H](OC(F)F)C3)n2)cc1Nc1cccc(-c2ncn(C)n2)c1OC [Compound 21BB]
pIC50 [1]: ≤ 6.30
pIC50 [2]: > 8.30
pIC50 [3]: ≤ 6.30
pIC50 [4]: ≤ 6.30

CCC(=O)c1cnc(Nc2ccn(CC3CCCO3)n2)cc1Nc1cccc(-c2ncn(C)n2)c1OC (stereo not drawn) [Compound 21S]
pIC50 [1]: ≤ 6.30
pIC50 [2]: 7.30 to 8.30
pIC50 [3]: ≤ 6.30
pIC50 [4]: ≤ 6.30

CCC(=O)c1cnc(Nc2ccc(C(C)(C)N(C)C)nn2)cc1Nc1cccc(-c2ncn(C)n2)c1OC [Compound 9NNN]
pIC50 [1]: ≤ 6.30
pIC50 [2]: 7.30 to 8.30
pIC50 [3]: ≤ 6.30
pIC50 [4]: ≤ 6.30

CCC(=O)c1cnc(Nc2ccnc(O[C@H]3CCN(C)C3)n2)cc1Nc1cccc(-c2ncn(C)n2)c1OC [Compound 18KK]
pIC50 [1]: ≤ 6.30
pIC50 [2]: 7.30 to 8.30
pIC50 [3]: ≤ 6.30
pIC50 [4]: ≤ 6.30

CCC(=O)c1cnc(Nc2ccc(C(N(C)C)C(F)(F)F)cn2)cc1Nc1cccc(-c2ncn(C)n2)c1OC (stereo not drawn) [Compound 9V]
pIC50 [1]: ≤ 6.30
pIC50 [2]: > 8.30
pIC50 [3]: ≤ 6.30
pIC50 [4]: ≤ 6.30

CCC(=O)c1cnc(Nc2ccc(CN3CC(OC)C3)cn2)cc1Nc1cccc(-c2ncn(C)n2)c1OC [Compound 9DD]
pIC50 [1]: ≤ 6.30
pIC50 [2]: > 8.30
pIC50 [3]: ≤ 6.30
pIC50 [4]: ≤ 6.30

CCC(=O)c1cnc(Nc2cnc(O[C@@H]3CCN(C)C3)cn2)cc1Nc1nccc(-c2ncn(C)n2)c1OC [Compound 18CCC]
pIC50 [1]: ≤ 6.30
pIC50 [2]: ≤ 6.30
pIC50 [3]: ≤ 6.30
pIC50 [4]: ≤ 6.30

CCC(=O)c1cnc(Nc2ccc(CN3CC4(CCOC4)C3)cn2)cc1Nc1cccc(-c2ncn(C)n2)c1OC [Compound 9CCC]
pIC50 [1]: ≤ 6.30
pIC50 [2]: > 8.30
pIC50 [3]: ≤ 6.30
pIC50 [4]: ≤ 6.30

CCC(=O)c1cnc(Nc2ccnc(O[C@@H]3CCN(C)C3)n2)cc1Nc1cccc(-c2ncn(C)n2)c1OC [Compound 18LL]
pIC50 [1]: ≤ 6.30
pIC50 [2]: 7.30 to 8.30
pIC50 [3]: ≤ 6.30
pIC50 [4]: ≤ 6.30

CCC(=O)c1cnc(Nc2ccn(C3CC(F)(F)C3)n2)cc1Nc1cccc(-c2ncn(C)n2)c1OC [Compound 21GG]
pIC50 [1]: ≤ 6.30
pIC50 [2]: 7.30 to 8.30
pIC50 [3]: ≤ 6.30
pIC50 [4]: ≤ 6.30

CCC(=O)c1cnc(Nc2ccc(OCC(C)(C)O)cn2)cc1Nc1cccc(-c2ncn(C)n2)c1OC [Compound 18E]
pIC50 [1]: 6.30 to 7.30
pIC50 [2]: > 8.30
pIC50 [3]: 6.30 to 7.30
pIC50 [4]: ≤ 6.30

CCC(=O)c1cnc(Nc2ccc(-n3cccn3)cn2)cc1Nc1cccc(-c2ncn(C)n2)c1OC [Compound 15H]
pIC50 [1]: ≤ 6.30
pIC50 [2]: > 8.30
pIC50 [3]: ≤ 6.30
pIC50 [4]: ≤ 6.30

CCC(=O)c1cnc(Nc2ccc(C(C)NC)nn2)cc1Nc1cccc(-c2ncn(C)n2)c1OC (stereo not drawn) [Compound 9JJJ]
pIC50 [1]: ≤ 6.30
pIC50 [2]: 7.30 to 8.30
pIC50 [3]: ≤ 6.30
pIC50 [4]: ≤ 6.30

CCC(=O)c1cnc(Nc2ccc(CCN(C)C)nn2)cc1Nc1cccc(-c2ncn(C)n2)c1OC [Compound 11D]
pIC50 [1]: ≤ 6.30
pIC50 [2]: 7.30 to 8.30
pIC50 [3]: ≤ 6.30
pIC50 [4]: ≤ 6.30

CCC(=O)c1cnc(Nc2ccc(CCN3CCCC3)nn2)cc1Nc1cccc(-c2ncn(C)n2)c1OC [Compound 11E]
pIC50 [1]: ≤ 6.30
pIC50 [2]: 6.30 to 7.30
pIC50 [3]: ≤ 6.30
pIC50 [4]: ≤ 6.30

CCC(=O)c1cnc(Nc2cnc(OCCN3CCOCC3)cn2)cc1Nc1cccc(-c2ncn(C)n2)c1OC [Compound 18GGG]
pIC50 [1]: ≤ 6.30
pIC50 [2]: 7.30 to 8.30
pIC50 [3]: ≤ 6.30
pIC50 [4]: ≤ 6.30

CCC(=O)c1cnc(Nc2cccc(CS(C)(=O)=O)n2)cc1Nc1cccc(-c2ncn(C)n2)c1OC [Compound 13N]
pIC50 [1]: 6.30 to 7.30
pIC50 [2]: 7.30 to 8.30
pIC50 [3]: 6.30 to 7.30
pIC50 [4]: ≤ 6.30

CCC(=O)c1cnc(Nc2cnc(CN)cn2)cc1Nc1cccc(-c2ncn(C)n2)c1OC [Compound 9QQQ]
pIC50 [1]: ≤ 6.30
pIC50 [2]: > 8.30
pIC50 [3]: ≤ 6.30
pIC50 [4]: ≤ 6.30

CCC(=O)c1cnc(Nc2ccc(CN(C)C(C)C)cn2)cc1Nc1cccc(-c2ncn(C)n2)c1OC [Compound 9T]
pIC50 [1]: ≤ 6.30
pIC50 [2]: > 8.30
pIC50 [3]: ≤ 6.30
pIC50 [4]: ≤ 6.30

CCC(=O)c1cnc(Nc2ccc(CNC)nn2)cc1Nc1cccc(-c2ncn(C)n2)c1OC [Compound 9GGG]
pIC50 [1]: ≤ 6.30
pIC50 [2]: 7.30 to 8.30
pIC50 [3]: ≤ 6.30
pIC50 [4]: ≤ 6.30

CCC(=O)c1cnc(Nc2cccc(CN3CCCCC3)n2)cc1Nc1cccc(-c2ncn(C)n2)c1OC [Compound 9GGGG]
pIC50 [1]: ≤ 6.30
pIC50 [2]: 7.30 to 8.30
pIC50 [3]: ≤ 6.30
pIC50 [4]: ≤ 6.30

CCC(=O)c1cnc(Nc2ccc([C@H](C)N3C[C@@H](O)[C@H](O)C3)cn2)cc1Nc1cccc(-c2ncn(C)n2)c1OC [Compound 9PP]
pIC50 [1]: ≤ 6.30
pIC50 [2]: 7.30 to 8.30
pIC50 [3]: 6.30 to 7.30
pIC50 [4]: ≤ 6.30

CCC(=O)c1cnc(Nc2ccn(CCOC)n2)cc1Nc1cccc(-c2ncn(C)n2)c1OC [Compound 21B]
pIC50 [1]: ≤ 6.30
pIC50 [2]: 7.30 to 8.30
pIC50 [3]: ≤ 6.30
pIC50 [4]: ≤ 6.30

CCC(=O)c1cnc(Nc2ccc(O[C@@H]3CCN(C)C3)nn2)cc1Nc1cccc(-c2ncn(C)n2)c1OC [Compound 18FF]
pIC50 [1]: ≤ 6.30
pIC50 [2]: 7.30 to 8.30
pIC50 [3]: ≤ 6.30
pIC50 [4]: ≤ 6.30

CCC(=O)c1cnc(Nc2ccc(OC3COC3)cn2)cc1Nc1cccc(-c2ncn(C)n2)c1OC [Compound 18Z]
pIC50 [1]: ≤ 6.30
pIC50 [2]: > 8.30
pIC50 [3]: ≤ 6.30
pIC50 [4]: ≤ 6.30

CCC(=O)c1cnc(NC(=O)C2CC2c2cnn(C)c2)cc1Nc1cccc(-c2ncn(C)n2)c1OC (stereo not drawn) [Compound 22A, N-(4-((2-methoxy-3-(1-methyl-1H-1,2,4-tliazol-3-yl)phenyl)amino)-5-propionylpyridin-2-yl)-2-(1-methyl-1H-pyrazol-4-yl)cyclopropane-1-carboxamide]
pIC50 [1]: ≤ 6.30
pIC50 [2]: 7.30 to 8.30
pIC50 [3]: ≤ 6.30
pIC50 [4]: ≤ 6.30

CCC(=O)c1cnc(Nc2cc(CN(C)C)ncn2)cc1Nc1cccc(-c2ncn(C)n2)c1OC [Compound 17A, 1-(6-((6-((dimethylamino)methyl)pyrimidin-4-yl)amino)-4-((2-methoxy-3-(1-methyl-1H-1,2,4-triazol-3-yl)phenyl)amino)pyridin-3-yl)propan-1-one]
pIC50 [1]: ≤ 6.30
pIC50 [2]: > 8.30
pIC50 [3]: ≤ 6.30
pIC50 [4]: ≤ 6.30

CCC(=O)c1cnc(Nc2cnc(CN(C)CC(F)F)cn2)cc1Nc1cccc(-c2ncn(C)n2)c1OC [Compound 9WWW]
pIC50 [1]: ≤ 6.30
pIC50 [2]: 7.30 to 8.30
pIC50 [3]: ≤ 6.30
pIC50 [4]: ≤ 6.30

CCC(=O)c1cnc(Nc2ccc(CN(C)C)cn2)cc1Nc1cccc(-c2ncn(C)n2)c1OC [Compound 9A, 1-(6-((5-((dimethylamino)methyl)pyridin-2-yl)amino)-4-((2-methoxy-3-(1-methyl-1H-1,2,4-triazol-3-yl)phenyl)amino)pyridin-3-yl)propan-1-one]
pIC50 [1]: ≤ 6.30
pIC50 [2]: > 8.30
pIC50 [3]: ≤ 6.30
pIC50 [4]: ≤ 6.30

CCC(=O)c1cnc(Nc2ccc(CCNC)cn2)cc1Nc1cccc(-c2ncn(C)n2)c1OC [Compound 11B]
pIC50 [1]: ≤ 6.30
pIC50 [2]: 7.30 to 8.30
pIC50 [3]: ≤ 6.30
pIC50 [4]: ≤ 6.30

CCC(=O)c1cnc(Nc2ccc(S(N)(=O)=O)cn2)cc1Nc1cccc(-c2ncn(C)n2)c1OC [Compound 13B]
pIC50 [1]: ≤ 6.30
pIC50 [2]: > 8.30
pIC50 [3]: ≤ 6.30
pIC50 [4]: ≤ 6.30

CCC(=O)c1cnc(Nc2cnc(CCN(C)C)cn2)cc1Nc1cccc(-c2ncn(C)n2)c1OC [Compound 11I]
pIC50 [1]: ≤ 6.30
pIC50 [2]: 7.30 to 8.30
pIC50 [3]: ≤ 6.30
pIC50 [4]: ≤ 6.30

CCC(=O)c1cnc(Nc2cc(C(N)=O)ccn2)cc1Nc1cccc(-c2ncn(C)n2)c1OC [Compound 8F]
pIC50 [1]: ≤ 6.30
pIC50 [2]: > 8.30
pIC50 [3]: ≤ 6.30
pIC50 [4]: ≤ 6.30

CCC(=O)c1cnc(Nc2ccc([C@@H](C)N3CC4(COC4)C3)cn2)cc1Nc1cccc(-c2ncn(C)n2)c1OC [Compound 9BBB]
pIC50 [1]: 6.30 to 7.30
pIC50 [2]: > 8.30
pIC50 [3]: 6.30 to 7.30
pIC50 [4]: ≤ 6.30

CCC(=O)c1cnc(Nc2ncc(CN(C)C)cc2F)cc1Nc1cccc(-c2ncn(C)n2)c1OC [Compound 9DDDD]
pIC50 [1]: ≤ 6.30
pIC50 [2]: 7.30 to 8.30
pIC50 [3]: ≤ 6.30
pIC50 [4]: ≤ 6.30

CCC(=O)c1cnc(Nc2ccc([C@@H](C)N3CC(O)C3)cn2)cc1Nc1cccc(-c2ncn(C)n2)c1OC [Compound 9HH]
pIC50 [1]: ≤ 6.30
pIC50 [2]: 7.30 to 8.30
pIC50 [3]: ≤ 6.30
pIC50 [4]: ≤ 6.30

CCC(=O)c1cnc(Nc2ccc(CN3CC(F)C3)cn2)cc1Nc1cccc(-c2ncn(C)n2)c1OC [Compound 9EE]
pIC50 [1]: ≤ 6.30
pIC50 [2]: > 8.30
pIC50 [3]: 6.30 to 7.30
pIC50 [4]: ≤ 6.30
